Data from patent US11021481B2, “Substituted isoindolin-1-ones and 2,3-dihydro-1h-pyrrolo[3,4-c]pyridin-1-ones as HPK1 antagonists” (Nimbus Saturn, Inc., priority 2019, dated 2021).

biological target: HPK1 (Homo sapiens (Human), UniProt Q92918); assay: HPK1 biochemical enzyme assay (microfluidic mobility shift assay); conditions: 1.5 nM HPK1, ATP 1 mM final, 30 min preincubation, 60 min at RT, Caliper EZ Reader; read-out: HPK1 1000UMATP caliper IC50
In short: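 Ten-point compound titrations (top 3 μM final) preincubated 30 min with HPK1 and substrate, then reaction started with 1 mM ATP and 1 μM substrate, 5 mM MgCl2. After 60 min at RT, reaction terminated and product measured by microfluidic mobility shift.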

Chain of HPK1 (Q92918 whole entry): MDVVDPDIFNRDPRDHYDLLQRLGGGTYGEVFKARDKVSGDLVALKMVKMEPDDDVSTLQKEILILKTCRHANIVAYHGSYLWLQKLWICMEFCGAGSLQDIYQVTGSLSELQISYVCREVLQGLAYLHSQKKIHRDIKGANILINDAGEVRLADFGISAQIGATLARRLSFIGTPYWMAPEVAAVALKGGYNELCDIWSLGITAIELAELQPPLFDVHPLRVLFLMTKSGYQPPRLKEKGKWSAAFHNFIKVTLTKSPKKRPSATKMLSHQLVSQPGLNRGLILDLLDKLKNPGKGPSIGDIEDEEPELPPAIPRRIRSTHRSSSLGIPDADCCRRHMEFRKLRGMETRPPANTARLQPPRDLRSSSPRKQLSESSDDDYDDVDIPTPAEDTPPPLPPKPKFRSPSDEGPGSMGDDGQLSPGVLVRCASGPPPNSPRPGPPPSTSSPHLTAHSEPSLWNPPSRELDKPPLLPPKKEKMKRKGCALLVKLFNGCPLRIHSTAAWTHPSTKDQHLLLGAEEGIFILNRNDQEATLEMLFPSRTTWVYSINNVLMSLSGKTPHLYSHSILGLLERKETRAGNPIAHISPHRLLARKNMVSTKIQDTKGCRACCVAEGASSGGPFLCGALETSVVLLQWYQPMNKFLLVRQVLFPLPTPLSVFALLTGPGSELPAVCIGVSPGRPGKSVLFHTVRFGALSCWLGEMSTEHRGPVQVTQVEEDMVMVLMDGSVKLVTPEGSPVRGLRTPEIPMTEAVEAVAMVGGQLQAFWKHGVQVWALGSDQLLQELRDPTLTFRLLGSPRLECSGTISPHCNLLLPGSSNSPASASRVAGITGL

Compound | IC50 [nM]
CN1CCCc2c(-c3ccc(Nc4ccc(N5CCNCC5)cn4)c4c3CNC4=O)ccnc21 [I-118, 4-(8-methyl-6.7-dihydro-5H-1,8-naphthyridin-4-yl)-7-[(5-piperazin-1-yl-2-pyridyl)amino] isoindolin-1-one] | 100 to 1000
O=C1NCc2c(-c3ccnc4c3ccn4C(F)F)ccc(Nc3ccc(N4CCNCC4)cn3)c21 [I-119, 4-[l-(difluorometh-yl)pyrrolo[2,3-b]pyridin-4-yl]-7-[(5-piperazin-1-yl-2-pyridyl)amino] isoindolin-1-one] | < 100
N#Cc1ccn2c(-c3ccc(Nc4ccc(N5CCNCC5)cn4)c4c3CNC4=O)cnc2c1 [I-120] | < 100
Cn1ccc2c(-c3ccc(Nc4ccc(N5CCC[C@@H](O)C5)cn4)c4c3CNC4=O)ccnc21 [I-121, 7-[[5-[(3R)-3-hydroxy-1-piperidyl]-2-pyridyl]amino]-4-(1-methylpyrrolo [2,3-b]pyridin-4-yl)isoindolin-1-one] | < 100
Cn1cnc2c(-c3ccc(Nc4ccc(N5CCNCC5)cn4)c4c3CNC4=O)cccc21 [I-122, 4-(1-methylbenzimidazol-4-yl)-7-[(5-piperazin-1-yl-2-pyridyl)amino] isoindolin-1-one] | < 100
Cn1ccc2c(-c3ccc(Nc4ccc(N5CCNCC5)cn4)c4c3CNC4=O)ncnc21 [I-123, 4-(7-methylpyrrolo [2,3-d]pyrimidin-4-yl)-7-[(5-piperazin-1-yl-2-pyridyl)amino] isoindolin-1-one] | < 100
Cc1ccn2c(-c3ncc(Nc4ccc(N5CCNCC5)cn4)c4c3CNC4=O)cnc2c1 [I-124, 4-(7-methylimidazo [1,2-a]pyridin-3-yl)-7-[(5-piperazin-1-yl-2-pyridyl)amino]-2,3-dihydropyrrolo [3,4-c]pyridin-1-one] | < 100
Cc1ccn2c(-c3ccc(Nc4ccc(N5CCC(O)CC5)cn4)c4c3CNC4=O)cnc2c1 [I-126, 7-[[5-(4-hydroxy-1-piperidyl)-2-pyridyl]amino]-4-(7-methylimidazo [1,2-a]pyridin-3-yl)isoindolin-1-one] | < 100
O=C1NCc2c(-c3ccnc4ccnn34)ccc(Nc3ccc(N4CCNCC4)cn3)c21 [I-127, 7-[(5-piperazin-1-yl-2-pyridyl)amino]-4-pyrazolo[1,5-a]pyrimidin-7-yl-isoindolin-1-one] | > 1000
CN1CCN(c2ccc(Nc3cnc(-c4c(F)cnc5c4ccn5C)c4c3C(=O)NC4)nc2)CC1 [I-128] | < 100
Cn1nc(Nc2ccc(-c3ccnc4c3ccn4C)c3c2C(=O)NC3)cc1C1CCOCC1 [I-129, 4-(1-methylpyrrolo [2,3-b]pyridin-4-yl)-7-[(1-methyl-5-tetrahydropy-ran-4-yl-pyrazol-3-yl)amino]isoin-dolin-1-one] | < 100
O=C1NCc2c(-c3cnc4c(F)cccn34)ccc(Nc3ccc(N4CCC(O)CC4)cn3)c21 [I-130, 4-(8-fluoroimidazo [1,2-a]pyridin-3-yl)-7-[[5-(4-hydroxy-1-piperidyl)-2-pyridyl]amino] isoindolin-1-one] | < 100
O=C1NCc2c(-c3cnn4ccccc34)ccc(Nc3ccc(N4CCC(O)CC4)cn3)c21 [I-131, 7-[[5-(4-hydroxy-1-piperidyl)-2-pyridyl]amino]-4-pyrazolo[1,5-a]pyridin-3-yl-isoindolin-1-one] | < 100

Further lines, results first:

IC50 [nM] | Compound
> 1000 | O=C1NCc2c(-c3cnc4ccc(C(F)(F)F)cn34)ccc(Nc3ccc(N4CCC(O)CC4)cn3)c21 [I-132]
< 100 | O=C1NCc2c(-c3cnc4cnccn34)ccc(Nc3ccc(N4CCC(O)CC4)cn3)c21 [I-133, 7-[[5-(4-hydroxy-1-piperidyl)-2-pyridyl]amino]-4-imidazo[1,2-a]pyrazin-3-yl-isoindolin-1-one]
< 100 | Cc1ccc2ncc(-c3ccc(Nc4ccc(N5CCC(O)CC5)cn4)c4c3CNC4=O)n2c1 [I-134, 7-[[5-(4-hydroxy-1-piperidyl)-2-pyridyl]amino]-4-(6-methylimidazo [1,2-a]pyridin-3-yl)isoindolin-1-one]
< 100 | Cc1cccn2c(-c3ccc(Nc4ccc(N5CCC(O)CC5)cn4)c4c3CNC4=O)cnc12 [I-135, 7-[[5-(4-hydroxy-1-piperidyl)-2-pyridyl]amino]-4-(8-methylimidazo [1,2-a]pyridin-3-yl)isoindolin-1-one]
< 100 | Cc1cccc2c(-c3ccc(Nc4ccc(N5CCC(O)CC5)cn4)c4c3CNC4=O)cnn12 [I-136, 7-[[5-(4-hydroxy-1-piperidyl)-2-pyripyl]amino]-4-(7-methylpyrazolo[1,5-a]pyridin-3-yl)isoindolin-1-one]
< 100 | Cc1ccc2c(-c3ccc(Nc4ccc(N5CCC(O)CC5)cn4)c4c3CNC4=O)cnn2c1 [I-137, 7-[[5-(4-hydroxy-1-piperidyl)-2-pyridyl]amino]-4-(6-methylpyrazolo[1,5-a]pyridin-3-yl)isoindolin-1-one]
< 100 | O=C1NCc2c(-c3cnc4cc(C(F)(F)F)ccn34)ccc(Nc3ccc(N4CCC(O)CC4)cn3)c21 [I-140]
< 100 | CN1CCN(c2ccc(Nc3cnc(-c4c(-c5ccccc5)[nH]c5ccccc45)c4c3C(=O)NC4)nc2)CC1 [I-141, 7-((5-(4-Methylpiperazin-1-yl)pyridin-2-yl)amino)-4-(2-phenyl-1H-indol-3-yl)-2,3-dihydro-1H-pyrrolo[3,4-c]pyridin-1-one]
< 100 | COc1ccc2ncc(-c3ccc(Nc4ccc(N5CCC(O)CC5)cn4)c4c3CNC4=O)n2c1 [I-142, 7-[[5-(4-hydroxy-1-piperidyl)-2-pyridyl]amino]-4-(6-methoxy-imidazo[1,2-a]pyridin-3-yl)-isoindolin-1-one]
< 100 | O=C1NCc2c(-c3cnc4n3CCOC4)ccc(Nc3ccc(N4CCC(O)CC4)cn3)c21 [I-143]
< 100 | Cn1ccc2c(-c3ccc(Nc4ccc(N5CCC(O)CC5)cn4)c4c3CNC4=O)ncnc21 [I-144, 7-[[5-(4-hydroxy-1-piperidyl)-2-pyridyl]amino]-4-(7-methylpyrrolo [2,3-d]pyrimidin-4-yl)isoindolin-1-one]
< 100 | CCNC(=O)C(C)(C)c1ccc(Nc2ccc(-c3ccnc4c3ccn4C)c3c2C(=O)NC3)nc1 [I-146, N-ethyl-2-methyl-2-[6-[[7-(1-methylpyrrolo [2,3-b]pyridin-4-yl)-3-oxo-isoindolin-4-yl]amino]-3-pyridyl]propan amide]
100 to 1000 | Cn1ccc2c(-c3ccc(Nc4cccc(N5CCC(O)CC5)n4)c4c3CNC4=O)ccnc21 [I-147, 7-[[6-(4-hydroxy-1-piperidyl)-2-pyridyl]amino]-4-(1-methylpyrrolo [2,3-b]pyridin-4-yl)isoindolin-1-one]
< 100 | Cc1ccn2c(-c3ccc(Nc4ccc(S(C)(=O)=O)cn4)c4c3CNC4=O)cnc2c1 [I-148, 4-(7-methylimidazo [1,2-a]pyridin-3-yl)-7-[(5-methylsulfony 1-2-pyridyl)amino] isoindolin-1-one]
< 100 | O=C1NCc2c(-c3cnc4c(C(F)(F)F)cccn34)ccc(Nc3ccc(N4CCC(O)CC4)cn3)c21 [I-149]
100 to 1000 | O=C1NCc2c(-c3cnn4c3CCC(C(=O)NC3CC3)C4)ccc(Nc3ccc(N4CCC(O)CC4)cn3)c21 (stereo not drawn) [I-150, N-cyclopropyl-3-[7-[[5-(4-hydroxy-1-piperidyl)-2-pyridyl]amino]-1-oxo-isoindolin-4-yl]-4,5,6,7-tetrahydropyra-zolo[1,5-a]pyridine-6-carboxamide]
< 100 | Cc1ccn2c(-c3ccc(Nc4ccc(N5CCC(O)CC5)cn4)c4c3CNC4=O)cnc2c1F [I-151]
